In one series the test system is Ba/F3-BCR-ABL1-WT cells. The series can be described thus: Ba/F3-BCR-ABL1-WT cellular proliferation assay. Conditions: Mus musculus, read-out: Ba/F3-BCR-ABL1-WT IC50. Format: cell-based, murine.
Series [1] can be described thus: Compound concentration in mouse brain and plasma. Format: in vivo. Conditions: 5 minutes after a single intravenous injection of 1 mg/kg in mice; for Kp at 5 min / concentration at 5 min: mouse; for Kp at 5 min: brain/plasma, read-out: Mean Ratio (brain/plasma); for concentration at 5 min: plasma, read-out: Mean blood (drug concentration in plasma).
Description: Approximately two parts volume of MeOH/water (2/8 v/v) were added to the preweighted brain samples (˜250 mg) and subsequently homogenized using Covaris™ instrument. A 50 μL aliquot was subjected to protein precipitation and analysis as described below.
Fifty μL aliquots of blood or brain homogenate from animals treated with c-ABL inhibitors were first spiked with 5 μL of the internal standard (N-(4-methyl-3-((4-(6-methylpyridin-3-yl)pyrimidin-2-yl)amino)phenyl)-4-((4-methylpiperazin-1-yl)methyl)benzamide for positive ion mode 5-chloro-N-(4-(N-(cyclohexylcarbamoyl)sulfamoyl)-phenethyl)-2-methoxybenzamide for negative ion mode, respectively), subsequently deproteinated by adding MeCN (200 μL), centrifuged, the supernatant evaporated to dryness, and re-dissolved in 100 μL of a MeOH/water (1/1 v/v). Five μL were subjected to HPLC-MS/MS analysis. Chromatographic separation from interfering endogenous and exogenous contaminants was achieved on an Phenomenex™ Polar RP reversed-phase HPLC column (particle size: 2.5 μm; column dimensions: 2×50 mm) using a linear gradient of 100% water containing 1% formic acid (A), and MeOH supplemented with 1% formic acid (B), which was run over 6.0 min from 5% to 90% B, then kept at 100% B for 1.0 min, and a subsequent 1.5 min postrun with re-equilibration of the column. The column was kept at 50° C. The flow of 350 μL/min from the HPLC system (Flux Rheos Allegro LC pump and CTC Pal autosampler) was directly introduced into the ion source of an Finnigan™ Quantum Ultra MS-detector (triple stage quadrupole mass analyzer) and subjected to heated electrospray ionization (HESI).
c-ABL inhibitors were specifically detected using multiple reaction monitoring from their quasi-molecular parent ion ([M+H]^+ or [M−H]^−) to specific daughter ions as given in the table below. Quantification of blood and brain levels of c-ABL inhibitors compounds were based on a 6-level calibration curve made in triplicate.
Series [2] concerns the target T1, ABL1 (64-515) (Homo sapiens (Human), UniProt P00519). The series can be described thus: Radio ABL1 (64-515) assay (radiometric filter-binding). Format: biochemical.
Description: For determination of ABL kinase activity, the radiometric filter-binding assay was used. […] Pre-incubation of enzyme with compounds (when stated) was performed by exposing the enzyme to compounds prior to addition of the substrate mixture (ATP and/or peptide substrate). […] Millipore, Volketswil, Switzerland) prepared according to the manufacturer's instructions. Filter-plates were washed 3× with 0.5% H3PO4, followed by addition of 30 μL scintillation cocktail (Microscint, Perkin Elmer) per well and then analysed in a TopCount NXT scintillation counter (Perkin Elmer). Results were expressed as IC50 values.
The test system of series [3] is Ba/F3-BCR-ABL1-T315I cells. In words: Ba/F3-BCR-ABL1-T315I cellular proliferation assay. Format: cell-based, murine. Conditions: Mus musculus, read-out: Ba/F3-BCR-ABL1-T315I IC50. An excerpt: The murine bone marrow-derived cell line Ba/F3 was used to generate the appropriate cell line models. Ba/F3 cells were obtained from the German Collection of Microorganisms and Cell Cultures (DSMZ, Braunschweig and DSMZ No. ACC 300). […] These cells are referred to as Ba/F3-WT.
To generate Ba/F3 cells that depend on BCR-ABL1 expression for growth and survival, Ba/F3 cells were engineered to express BCR-ABL1 using retroviral transduction with a MSCV based retroviral vector containing a p210 BCR-ABL1expression cassette. When grown in the absence of IL-3, the proliferation of the cells is dependent on the expression of BCR-ABL1. (Daley, G. Q. and Baltimore, D. Transformation of an interleukin 3-dependent hematopoietic cell line by the chronic myeloid leukemia-specific p210 BCR-ABL1 protein. PNAS 1988; 85:9312-9316). These cells are referred to as Ba/F3-BCR-ABL1-WT. A similar approach was used to generate Ba/F3 cells that depend on a BCR-ABL1 variant in which threonine 315 is replaced with isoleucine. These cells are referred to as Ba/F3-BCR-ABL1-T3151.
Ba/F3-WT cells were maintained in RPMI1640 media with L-glutamine, HEPES (Lonza), 10% FBS (Gibco) and 5 ng/ml IL-3 (Calbiochem). Ba/F3-BCR-ABL1-WT cells and Ba/F3-BCR-ABL1-T3151 cells were maintained in RPMI1640 media with L-glutamine, HEPES (Lonza) and 10% FBS (Gibco).
For each cell line, the cell density was adjusted to 50 000 cells/mL and 50 μL (2500 cells) added per well of a 384-well assay plate.
Test compounds were resuspended in DMSO at a concentration of 10 mM. A serial three-fold dilution of each compound with DMSO was performed in 384-well plates using the Janus Liquid Dispenser (PerkinElmer). Compound was delivered to the assay plates containing 2500 cells in a 50 μL volume via Acoustic delivery from an ATS-100 (EDC). For Ba/F3-BCR-ABL1-WT cell assays, […] of each compound dilution was transferred to the assay plate for final assay concentrations of 0.4 μM, 0.13 μM, 0.044 μM, 0.015 μM, 0.005 μM, 0.001 μM, 0.00033 μM, 0.00011 μM, 0.000037 μM, 0.000012 μM. For Ba/F3-WT and Ba/F3-BCR-ABL1-T315I cell assays, […] of each compound dilution was transferred to the assay plate for final assay concentrations of 10 μM, 3.33 μM, 1.11 μM, 0.37 μM, 0.12 μM, 0.041 μM, 0.014 μM, 0.0046 μM, 0.0015 μM, 0.00051 μM.
Cells were incubated at 37° C. in a humidified environment with 5% carbon dioxide for 48 hours. Britelite plus solution (Perkin Elmer) was prepared according to the manufacturer's instructions and 25 μL added to each well of the assay plate. Plates were incubated for 3-5 minutes and the luminescence detected on an EnVision Multimode plate reader (Perkin Elmer). The degree of luminescence correlates with the number of cells in each well. The effect of each inhibitor concentration can therefore be calculated and IC50 values generated.

The target in series [4] is T1, ABL1 (64-515). In words: Caliper ABL1 (64-515) assay (microfluidic mobility shift). In kind it is biochemical.
Description: All assays were performed in 384-well microtiter plates. Each assay plate contained 8-point serial dilutions for 40 test compounds, as well as four 8-point serial dilutions of staurosporine as a reference compound, plus 16 high and 16 low controls. Liquid handling and incubation steps were done on a Thermo CatX workstation equipped with Innovadyne Nanodrop Express. Between pipetting steps, tips were cleaned in wash cycles using wash buffer.
The assay plates were prepared by addition of 50 nL per well of compound solution in 90% DMSO. […] Plates with terminated kinase reactions were transferred to the Caliper LC3000 workstations for reading. Phosphorylated and unphosphorylated peptides were separated using the Caliper microfluidic mobility shift technology. Briefly, samples from terminated kinase reactions were applied to the chip. Analytes are transported through the chip by constant buffer flow and the migration of the substrate peptide is monitored by the fluorescence signal of its label. Phosphorylated peptide (product) and unphosphorylated peptide (substrate) are separated in an electric field by their charge/mass ratio. Kinase activities were calculated from the amounts of formed phospho-peptide. IC50 values were determined from percent inhibition values at different compound concentrations by non-linear regression analysis.
Test compounds were dissolved in DMSO (10 mM) and transferred into 1.4 mL flat bottom or V-shaped Matrix tubes carrying a unique 2D matrix. The stock solutions were stored at +2° C. if not used immediately. For the test procedure the vials were defrosted and identified by a scanner whereby a working sheet was generated that guided the subsequent working steps.
Compound dilutions were made in 96-well plates. This format enabled the assay of maximally 40 individual test compounds at 8 concentrations (single points) including 4 reference compounds. The dilution protocol included the production of “pre-dilution plates”, “master plates” and “assay plates”.
Polypropylene 96-well plates were used as pre-dilution plates. […] All dilution steps were done on a HamiltonSTAR robot.
These plates were used directly for the assay which was performed in a total volume of 9.05 μL.

Like-named read-outs stand apart in the source and are kept apart here.

T1 sequence (P00519 64-515): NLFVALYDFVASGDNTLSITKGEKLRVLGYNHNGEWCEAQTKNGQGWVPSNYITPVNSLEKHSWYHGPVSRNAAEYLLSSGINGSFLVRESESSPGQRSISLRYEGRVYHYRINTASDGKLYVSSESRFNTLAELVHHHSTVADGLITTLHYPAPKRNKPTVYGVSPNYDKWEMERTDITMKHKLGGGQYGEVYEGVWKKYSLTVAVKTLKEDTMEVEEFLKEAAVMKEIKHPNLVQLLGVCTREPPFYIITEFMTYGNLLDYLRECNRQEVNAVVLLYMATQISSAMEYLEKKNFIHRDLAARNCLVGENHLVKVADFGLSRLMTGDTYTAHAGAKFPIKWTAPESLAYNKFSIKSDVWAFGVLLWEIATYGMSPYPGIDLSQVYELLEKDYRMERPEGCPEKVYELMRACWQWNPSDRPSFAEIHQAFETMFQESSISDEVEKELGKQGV
Description for Ba/F3-BCR-ABL1-WT cells: To generate Ba/F3 cells that depend on BCR-ABL1 expression for growth and survival, Ba/F3 cells were engineered to express BCR-ABL1 using retroviral transduction with a MSCV based retroviral vector containing a p210 BCR-ABL1expression cassette. […] These cells are referred to as Ba/F3-BCR-ABL1-WT.
Cells were incubated at 37° C. in a humidified environment with 5% carbon dioxide for 48 hours. Britelite plus solution (Perkin Elmer) was prepared according to the manufacturer's instructions and 25 μL added to each well of the assay plate. […] The degree of luminescence correlates with the number of cells in each well. The effect of each inhibitor concentration can therefore be calculated and IC50 values generated.

As for `COc1ncc(-c2cc(C(=O)Nc3ccc(OC(F)(F)F)cc3)ccc2C)cn1` [Example 13, 3-(2-Methoxypyrimidin-5-yl)-4-methyl-N-(4-(trifluoromethoxy)phenyl)benzamide], the IC50 in the series on Ba/F3-BCR-ABL1-WT cells (48 hours) was determined as 0.0049 µM. In addition, in series [1], the “Mean brain (drug concentration in brain)” value was 4011 pmol/g, the Kp at 5 min is 1.29 and the concentration at 5 min worked out at 3.09 µM. This compound also registered an IC50 on ABL1 (64-515) [2] of 0.003 µM.

As to `Cc1ccc(C(=O)Nc2ccc(OC(F)(F)F)cc2)cc1-c1cccnc1` [Example 15, 4-Methyl-3-(pyridin-3-yl)-N-(4-(trifluoromethoxy)phenyl)benzamide], in the series on Ba/F3-BCR-ABL1-WT cells (48 hours), the IC50 was 0.011 µM. Moreover, in series [1], the “Mean brain (drug concentration in brain)” value turned out to be 6847 pmol/g, the Kp at 5 min came out at 3.2 and the concentration at 5 min turned out to be 2.14 µM. On ABL1 (64-515) [2], the IC50 was 0.004 µM.

On to `Cc1ccc(C(=O)Nc2ccc(OC(F)(F)F)cc2)cc1-n1ccnc1` [Example 16, 3-(1H-Imidazol-1-yl)-4-methyl-N-(4-(trifluoromethoxy)phenyl)benzamide], for which the values for the IC50 (in the series on Ba/F3-BCR-ABL1-WT cells (48 hours); in series [3] (48 hours); on ABL1 (64-515) [2]) were 0.0012 µM, 0.617 µM and 0.004 µM, respectively.

In the case of `Cc1ccc(C(=O)Nc2ccc(OC(F)(F)F)cc2)cc1-c1cncs1` [Example 17, 4-Methyl-3-(thiazol-5-yl)-N-(4-(trifluoromethoxy)phenyl)benzamide], in the series on Ba/F3-BCR-ABL1-WT cells (48 hours), the IC50 came out at 0.027 µM. Further, in series [1], the “Mean brain (drug concentration in brain)” value is 6985 pmol/g, the Kp at 5 min is 2.3 and the concentration at 5 min was 3.03 µM. In addition, at ABL1 (64-515) [2], the IC50 came to 0.003 µM.

As for `COc1ccc(C(=O)Nc2ccc(OC(F)(F)F)cc2)cc1-c1cncnc1` [Example 30, 4-methoxy-3-(pyrimidin-5-yl)-N-(4-(trifluoromethoxy)phenyl)benzamide], the IC50 in the series on Ba/F3-BCR-ABL1-WT cells (48 h) was 0.0041 µM. For the same compound, in series [1], the “Mean brain (drug concentration in brain)” value came to 4471 pmol/g and the concentration at 5 min is 5.39 µM. Besides, the IC50 in series [3] (48 h) was 0.849 µM.

For the compound `O=C(Nc1ccc(OC(F)(F)F)cc1)c1ccc(OCCN2CCOCC2)c(-c2cncnc2)c1` [Example 37, 4-(2-Morpholinoethoxy)-3-(pyrimidin-5-yl)-N-(4-(trifluoromethoxy)phenyl)benzamide], the IC50 in series [3] (48 hours) turned out to be 0.521 µM; at ABL1 (64-515) [2] it was 0.0036 µM.

Take `Cc1ncc(C(=O)Nc2ccc(OC(F)(F)F)cc2)cc1-c1cncnc1` [Example 43, 6-Methyl-5-(pyrimidin-5-yl)-N-(4-(trifluoromethoxy)phenyl)nicotinamide]: the IC50 with Ba/F3-BCR-ABL1-WT cells (48 hours) amounted to 0.01 µM; on ABL1 (64-515) [4] it was 0.0023 µM; on ABL1 (64-515) [2] it was 0.003 µM.

As to `O=C(Nc1ccc(OC(F)(F)F)cc1)c1cnc(C2=CCOCC2)c(-c2cncnc2)c1` [Example 44, 6-(3,6-Dihydro-2h-pyran-4-yl)-5-(pyrimidin-5-yl)-N-(4-(trifluoromethoxy)phenyl)nicotinamide], the IC50 in series [3] (48 hours) was determined as 0.214 µM; at ABL1 (64-515) [2], 0.006 µM.

With `O=C(Nc1ccc(OC(F)(F)F)cc1)c1cnc(C2CCOCC2)c(-c2cncnc2)c1` [Example 45, 5-(Pyrimidin-5-yl)-6-(tetrahydro-2h-pyran-4-yl)-N-(4-(trifluoromethoxy)phenyl)nicotinamide], the IC50 in series [3] (48 hours) is 0.46 µM.

Turning to `N#CC1(c2ncc(C(=O)Nc3ccc(OC(F)(F)F)cc3)cc2-c2cncnc2)CCOCC1` [Example 46, 6-(4-Cyanotetrahydro-2h-pyran-4-yl)-5-(pyrimidin-5-yl)-N-(4-(trifluoromethoxy)phenyl)nicotinamide], the IC50 at ABL1 (64-515) [4] was found to be 0.0066 µM.

With `CC(C)(C#N)c1ncc(C(=O)Nc2ccc(OC(F)(F)F)cc2)cc1-c1cncnc1` [Example 47, 6-(2-Cyanopropan-2-yl)-5-(pyrimidin-5-yl)-N-(4-(trifluoromethoxy)phenyl)nicotinamide], the IC50 in series [3] (48 hours) turned out to be 0.736 µM.

For `COCCOc1ncc(C(=O)Nc2ccc(OC(F)(F)F)cc2)cc1-c1cncnc1` [Example 51, 6-(2-Methoxyethoxy)-5-(pyrimidin-5-yl)-N-(4-(trifluoromethoxy)phenyl)nicotinamide], the values for the IC50 on ABL1 (64-515) [4] and at ABL1 (64-515) [2] were 0.051 µM and 0.063 µM, respectively.

For the compound `O=C(Nc1ccc(OC(F)(F)F)cc1)c1cnc(OC2CCOCC2)c(-c2cncnc2)c1` [Example 53, 5-(Pyrimidin-5-yl)-6-((tetrahydro-2h-pyran-4-yl)oxy)-N-(4-(trifluoromethoxy)phenyl)nicotinamide], the IC50 on ABL1 (64-515) [4] stood at 0.022 µM; at ABL1 (64-515) [2], 0.0089 µM.

Turning to `O=C(Nc1ccc(OC(F)(F)F)cc1)c1cnc(C(F)(F)F)c(-c2cncnc2)c1` [Example 57, 5-(Pyrimidin-5-yl)-N-(4-(trifluoromethoxy)phenyl)-6-(trifluoromethyl)nicotinamide], the IC50 in series [3] (48 hours) turned out to be 0.703 µM; on ABL1 (64-515) [2], 0.022 µM.

In the case of `O=C(Nc1ccc(OC(F)(F)F)cc1)c1cc(-c2cncnc2)ccc1F` [Example 59, 2-Fluoro-5-(pyrimidin-5-yl)-N-(4-(trifluoromethoxy)phenyl)benzamide], the IC50 on ABL1 (64-515) [4] is 0.093 µM; on ABL1 (64-515) [2] it was 0.02 µM.

For the compound `Nc1ncc(-c2cncc(C(=O)Nc3ccc(OC(F)(F)F)cc3)c2)cn1` [Example 61, 5-(2-Aminopyrimidin-5-yl)-N-(4-(trifluoromethoxy)phenyl)nicotinamide], the IC50 amounted to 0.0315 µM at ABL1 (64-515) [4] and 0.0035 µM on ABL1 (64-515) [2].

In the case of `O=C(Nc1ccc(OC(F)(F)F)cc1)c1cncc(-c2cnn(CCO)c2)c1` [Example 64, 5-(1-(2-Hydroxyethyl)-1H-pyrazol-4-yl)-N-(4-(trifluoromethoxy)phenyl)nicotinamide], the values for the IC50 on ABL1 (64-515) [4] and at ABL1 (64-515) [2] were 0.2 µM and 0.114 µM, respectively.

With `CC(C)(O)c1ncc(C(=O)Nc2ccc(OC(F)(F)F)cc2)cc1-c1cncnc1` [Example 66, 6-(2-Hydroxypropan-2-yl)-5-(pyrimidin-5-yl)-N-(4-(trifluoromethoxy)phenyl)nicotinamide], the IC50 in series [3] (48 hours) was 0.722 µM.

Regarding `O=C(Nc1ccc(OC(F)(F)F)cc1)c1cccc(-c2cncnc2)n1` [Example 73, 6-(Pyrimidin-5-yl)-N-(4-(trifluoromethoxy)phenyl)picolinamide], the IC50 in the series on Ba/F3-BCR-ABL1-WT cells (48 hours) was determined as 1.87 µM; at ABL1 (64-515) [4] it was 0.54 µM; at ABL1 (64-515) [2], 0.684 µM.

Turning to `O=C(Nc1ccc(OC(F)(F)F)cc1)c1cncc(-c2cccnc2)c1` [Example 74, N-(4-(Trifluoromethoxy)phenyl)-[3,3′-bipyridine]-5-carboxamide], in the series on Ba/F3-BCR-ABL1-WT cells (48 hours), the IC50 turned out to be 0.03 µM. In series [1], the “Mean brain (drug concentration in brain)” value is 8509 pmol/g, the Kp at 5 min was determined as 3.29 and the concentration at 5 min amounted to 2.58 µM. The IC50 on ABL1 (64-515) [2] is 0.0087 µM.

Turning to `O=C(Nc1ccc(OC(F)(F)F)cc1)c1cnc(Cl)c(-c2cncc(F)c2)c1` [Example 77, 2-Chloro-5′-fluoro-N-(4-(trifluoromethoxy)phenyl)-[3,3′-bipyridine]-5-carboxamide], the results for the IC50 in the series with Ba/F3-BCR-ABL1-WT cells (48 hours) and at ABL1 (64-515) [4] were 0.013 µM and 0.0049 µM, respectively.

For the compound `O=C(Nc1ccc(OC(F)(F)F)cc1)c1cnc(Cl)c(-c2cccnc2)c1` [Example 79, 2-Chloro-N-(4-(trifluoromethoxy)phenyl)-[3,3′-bipyridine]-5-carboxamide], the IC50 in the series on Ba/F3-BCR-ABL1-WT cells (48 hours) is 0.006 µM; at ABL1 (64-515) [4] it was 0.01 µM.

On to `O=C(Nc1ccc(OC(F)(F)F)cc1)c1cnc(Cl)c(-c2ccn[nH]2)c1` [Example 80, 6-Chloro-5-(1H-pyrazol-5-yl)-N-(4-(trifluoromethoxy)phenyl)nicotinamide], for which the IC50 at ABL1 (64-515) [4] came out at 0.055 µM.

The values are drawn from patent US9315489B2, “Compounds and compositions for inhibiting the activity of ABL1, ABL2 and BCR-ABL1” (Novartis AG, priority 2012, dated 2016).
